{
  "source": "patent US10072021B2",
  "about": "“Compound for inhibiting binding between DX2 protein and P14/ARF protein, and pharmaceutical composition for treating or preventing cancer disease containing same as effective ingredient” (PUSAN NATIONAL UNIVERSITY INDUSTRY-UNIVERSITY COOPERATION …, priority 2014, dated 2018)",
  "key": {"[1]": {"system": "DX2 and DK MEFs; primary tumor cells from DX2 and DK mice", "experiment": "Reduction of anticancer drug resistance in DX2 and DK MEFs or primary tumor cells (MTT)", "format": "cell-based, mouse", "procedure": "By MTT assay, anticancer effects were confirmed based on viability of tumor cells. That is, cells were incubated in 0.5 mg/ml of MTT solution for 4 hours at a temperature of 37° C. for a reaction, and then, formazen products formed therefrom were dissolved in dimethyl sulfoxide (DMSO). Then, absorbance thereof was measured at 540 nm by using a spectrometer."}, "[2]": {"target": "T1, DX2-p14/ARF binding (His-DX2, GST-p14/ARF) (Homo sapiens, UniProt Q13155)", "T1 construct": "made in house; host or cells: E. coli BL21(DE3) (stated for the GST fusion)", "T1 sequence (Q13155 1-251 isoform Q13155-2)": "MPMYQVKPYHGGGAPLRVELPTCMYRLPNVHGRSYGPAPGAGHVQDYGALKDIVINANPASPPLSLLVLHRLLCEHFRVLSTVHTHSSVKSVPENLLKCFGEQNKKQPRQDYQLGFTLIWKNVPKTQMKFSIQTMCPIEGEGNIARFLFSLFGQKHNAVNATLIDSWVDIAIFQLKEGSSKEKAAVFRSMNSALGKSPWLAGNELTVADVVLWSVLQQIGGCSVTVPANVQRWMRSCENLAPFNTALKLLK", "experiment": "ELISA-based screening for inhibitors of DX2-p14/ARF binding", "conditions": "ELISA values at 450 nm", "procedure": "In detail, referring to drawings, the compound according to an embodiment of the present invention which is a specific binding inhibitor of DX2 and p14/ARF was screened by using an ELISA-based screening method of FIG. 1. Based on the screening reaction system, increases in ELISA values with increasing concentrations of p14/ARF were measured. […] Thus, by using the ELISA-based screening method, compounds that are specific binding inhibitors of DX2 and p14/ARF were primarily screened.\nThat is, 0.5% His-DX2 recombinant proteins were immobilized on a 96-well plate with paraformaldehyde (PFA). After performing drying and cleaning processes, GST-p14/ARF proteins were allowed to react with a random compound (final concentration: 0.1 mM). After 1 hour, the plate was washed using TBS-T, and then, incubated with anti-GST antibodies (1:10,000, 30 minutes) and anti-mouse-IgG-HRP (1:50,000, 1 hour). After performing a washing process twice, the plate was incubated with 3,3′,5,5′-tetramethylbenzidine (TMB) solution (Calbiochem) and stop solution (1N H2SO4) for a reaction. Afterwards, by using an ELISA reader, values were measured at 450 nm, thereby selecting candidate drugs as DX2-p14/ARF binding inhibitors. […]"}, "[3]": {"target": "T2, DX2-AIMP2 binding (Homo sapiens, UniProt Q13155)", "T2 sequence (Q13155 1-251 isoform Q13155-2)": "T1 sequence (Q13155 1-251 isoform Q13155-2)", "experiment": "Protein binding assay using His-DX2 protein", "conditions": "FIG. 2C", "procedure": "Here, contransfected 293 cells were allowed to react with MG132 before immunoprecipitation analysis to prevent reduction of two proteins, and after performing SLCB050 treatment (10 μM, 6 hours), immunoprecipitation assay was performed on the cells by using Myc antibodies (DX2).\nTo address direct binding between the two proteins, agarose-bead conjugated GST (negative control) or GST-target protein was incubated with cell lysate or recombinant protein in radioimmunoprecipitation assay (RIPA) buffer (NaCl, 25 mM Tris-Cl, 1% NP-40, 1% sodium deoxycholate, 0.1% SDS, protease inhibitor mixture) for 1 hour at a temperature of 4° C. for a reaction."}, "[4]": {"system": "lung tumors of DK mice", "experiment": "In vivo anticancer effect in DK mice (lung tumors)", "procedure": "All experimental procedures using laboratory animals were approved by the animal care committee of Pusan National University. DX2 (C57/BL6) and K-RasLA2 (C57/BL6) mice were obtained from Dr. Kim, Sung-Hoon and Professor. Choi, Kang-Ryeol (Yonsei University), respectively, and double Tg mice were obtained by cross-breeding of DX2 and K-RasLA2 mice. Before experiment, all mice were maintained under temperature- and light-controlled conditions (20-23° C., 12 h/12 h light/dark cycle), and provided autoclaved food and water.\nEvery weeks, tumor volume and body weight were measured.\nAfter dissection of mice, tissues were fixed using 10% formalin (in PBS) for 24 hours, and embedded in paraffin blocks according to a basic tissue processing procedure. For histological analysis, embedded tissues were cut for […] by Leica microtome (Wetzlar, Germany) and transferred onto adhesive-coated slides (Marienfeld laboratory glassware, Germany). After deparaffin and rehydration, sections were then stained with H&E for routine examination.\nFor IHC staining, rehydrated tissue sections were incubated with antibodies to Ki-67 (Abcam, ab15580), pan-keratin (Sigma, C2931), pro-surfactant C (Millipore, AB3786), NSE (DAKO, IS612), and HER2/Neu (DAKO, A0458) for a reaction. Antigen retrieval was performed using 10 mM sodium citrate (pH 6.0) twice at a temperature of 95° C. for 10 minutes each, and endogenous peroxidase activity was blocked with 3% […] for 10 min. Then, the slides were dehydrated following a standard procedure and sealed with cover glass using mounting solution. TUNEL reaction was done as described in the manual for In Situ Cell Death Detection Kit, POD (Hoffmann-La Roche Ltd, Basel, Swizerland).\nTo evaluate tumor incidence, lung tissues of each mouse was fixed and embedded in paraffin. 5 sections from each mouse were examined by 3 independent investigator, who counted tumor. In addition, tumor area was calculated by tumor occupied area in total lung area using photoshop software."}},
  "note": "“Also recorded” adds a separate entry of the source.",
  "data": [
    {"smiles": "CC1(C)Oc2cc3oc(=O)ccc3cc2C[C@@H]1OC(=O)/C=C/c1ccco1", "note": "[SLCB050, (7S)-(+)-3-(2-Furanyl)-acrylic acid, 8,8-dimethyl-2-oxo-6,7-dihydro-2H,8H-pyrano[3,2-g]chromen-7-yl-ester]", "values": [
      {"measurement": "resistance to Adriamycin in primary tumor cells from DX2 and DK mice", "setting": "[1]; Adriamycin 0.2 μg/ml with SLCB050 10 μM, 24 hours, FIG. 8B", "result": "resistance to Adriamycin was also abolished"},
      {"measurement": "resistance to GN25 in DX2 and DK MEFs", "setting": "[1]; GN25 5 μM with SLCB050 10 or 20 μM, 6 hours, FIG. 8A", "result": "resistance to GN25 in DX2 and DK cells was abolished"},
      {"measurement": "ELISA reaction of DX2-p14/ARF binding", "setting": "[2]", "result": "considerably reduced"},
      {"measurement": "binding between DX2 and AIMP2", "setting": "[3]", "result": "binding between DX2 and AIMP2 was reduced"},
      {"measurement": "weight loss, combination", "setting": "[4]; DK mice, SLCB050 10 mg/kg and Adriamycin 2.5 mg/kg", "result": "without significant weight loss"},
      {"measurement": "tumor progression, combination", "setting": "[4]; DK mice, SLCB050 10 mg/kg and Adriamycin 2.5 mg/kg, i.p., FIG. 10B, 10C", "result": "significantly suppressed tumor progression; also recorded: induced tumor regression"},
      {"measurement": "DX2 level in vivo (western blot)", "setting": "[4]; DK mice, SLCB050 treatment, FIG. 12A", "result": "reduction of DX2"},
      {"measurement": "tumor volumes, combination", "setting": "[4]; DK mice, combinational treatment with Adriamycin and SLCB050, FIG. 10C", "result": "reduced tumor volumes"},
      {"measurement": "SCLC regions in lung tissue (H-E staining), combination", "setting": "[4]; DK mice, combinational treatment with Adriamycin and SLCB050, FIG. 11", "result": "more obviously erased"},
      {"measurement": "apoptotic tumor cells (TUNEL staining)", "setting": "[4]; lung tissues of DK mice treated with Adriamycin and SLCB050 in combination, FIG. 12B, 12C", "result": "obviously increased apoptosis tumer cells"}
    ]}
  ]
}
